Experimental data from PubChem BioAssay AID743440 (Broad Institute, 2014).
The source made the active and inactive calls.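 The calls were made as follows: active = AC50 for cell killing below 10 µM, with the signal falling as expected; inactive = the rest, including compounds acting in the opposite direction.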

Test system: not listed separately
Test: toxicity toward HepG2 liver cells – cell-based, plate reader, dry powder, set 11, cytotoxicity control, dose response (AID 743440)
Settings: HepG2 viability, ATP luminescence (CellTiter-Glo), 72 h; at 12 µM (top of the series)
In the case of `O=C(CSc1c2c(nc3ccc(Cl)cc13)CCCC2)NCc1cccs1`, the activity change, negative = cytotoxicity is reported as -11.9% (inactive).

Same assay, conditions: HepG2 viability, ATP luminescence (CellTiter-Glo), 72 h; at 26 µM (top of the series)
In the case of `O=C(COc1ccc(C(=O)NCC2CCCO2)cc1)Nc1cccc(C(F)(F)F)c1` (configuration not stated), the activity change, negative = cytotoxicity is reported as -9.73% (inactive).
For `CCOC(=O)C1CCN(C(=O)c2ccc(OCC(=O)Nc3ccc(OCC)cc3)c(OC)c2)CC1`, the activity change, negative = cytotoxicity was -2.93% (inactive).
With `NC(=O)C1CCN(C(=O)c2ccc(OCC(=O)Nc3cccc(C(F)(F)F)c3)cc2)CC1` the activity change, negative = cytotoxicity was -3.5% (inactive).
With `COC(=O)CCCN(C)C(=O)c1ccc(OCC(=O)Nc2cccc(OC)c2)cc1` the activity change, negative = cytotoxicity was -8.54% (inactive).
In the case of `Cc1ccc2nc(Cl)cc(SCC(=O)NCc3ccco3)c2c1`, the activity change, negative = cytotoxicity is reported as -16.7% (inactive).
In the case of `O=C(CSc1ccc2ccccc2n1)NCc1ccco1`, the activity change, negative = cytotoxicity is reported as -2.89% (inactive).
With `Cc1ccc(NC(=O)COc2ccccc2C(=O)NCCN(C)C)cc1` the activity change, negative = cytotoxicity was -14.7% (inactive).
In the case of `CN(C(=O)COc1ccccc1C(N)=O)c1ccccc1`, the activity change, negative = cytotoxicity is reported as 2.01% (inactive).
With `O=C(COc1ccc(C(=O)N2CCC2)cc1)Nc1cccc(C(F)(F)F)c1` the activity change, negative = cytotoxicity was -3.29% (inactive).
With `Cn1c(=O)cc(SCC(=O)NCc2ccco2)c2ccccc21` the activity change, negative = cytotoxicity was 2.16% (inactive).
In the case of `O=C(CSc1cccc2cccnc12)NCc1ccco1`, the activity change, negative = cytotoxicity is reported as 9.13% (inactive).
In the case of `CCOC(=O)C1CCN(C(=O)c2ccc(OCC(=O)N3CCOCC3)c(OC)c2)CC1`, the activity change, negative = cytotoxicity is reported as -12.3% (inactive).
For `CN(C(=O)COc1ccccc1C(=O)Nc1ccccc1)c1ccccc1`, the activity change, negative = cytotoxicity was -11.2% (inactive).
For `COc1ccc(N(Cc2cccs2)C(=O)COc2ccccc2C(=O)Nc2ccccc2)cc1`, the activity change, negative = cytotoxicity was -1.88% (inactive).
For `CN(C)c1ccc(NC(=O)COc2ccccc2C(=O)N2CCOCC2)cc1`, the activity change, negative = cytotoxicity was 8.33% (inactive).
With `CN(C(=O)COc1ccc(Cl)cc1C(N)=O)c1ccccc1` the activity change, negative = cytotoxicity was 6.24% (inactive).
For `O=C(COc1ccccc1C(=O)NCc1ccccc1)Nc1ccccc1`, the activity change, negative = cytotoxicity was -9.2% (inactive).
With `CN(CCOc1ccccc1)C(=O)c1ccc(OCC(=O)Nc2cccc(C(F)(F)F)c2)cc1` the activity change, negative = cytotoxicity was -1.92% (inactive).
In the case of `CCN(CC)C(=O)CSc1c2c(nc3ccc(Cl)cc13)CCCC2`, the activity change, negative = cytotoxicity is reported as -8.05% (inactive).
With `O=C(O)CSc1c2c(nc3cc(C(=O)NCc4cccs4)ccc13)CCCC2` the activity change, negative = cytotoxicity was -3.5% (inactive).
For `Cn1cc(SCC(=O)NCc2ccco2)c2ccccc21`, the activity change, negative = cytotoxicity was -5.75% (inactive).
In the case of `O=C(CSc1c2c(nc3ccc(Cl)cc13)CCCC2)N1CCNC1=O`, the activity change, negative = cytotoxicity is reported as -15.2% (inactive).
With `COc1ccc(OCCNC(=O)c2ccccc2OCC(=O)Nc2ccc(NC(C)=O)cc2)cc1` the activity change, negative = cytotoxicity was -7.48% (inactive).
In the case of `O=C(COc1ccc(C(=O)N2CCN(C(=O)C3CC3)CC2)cc1)Nc1cccc(C(F)(F)F)c1`, the activity change, negative = cytotoxicity is reported as -22.9% (inactive).
In the case of `CCOc1ccc(NC(=O)COc2ccc(C(=O)N3CCC(C(N)=O)CC3)cc2OC)cc1`, the activity change, negative = cytotoxicity is reported as -12.6% (inactive).
With `O=C(CSc1c2c(nc3ccc(Cl)cc13)CCCC2)N1CCCCC1` the activity change, negative = cytotoxicity was -19.8% (inactive).

Test system: HepG2 viability, ATP luminescence (CellTiter-Glo), 72 h
Test: as above
Settings: not given
With `Cc1ccc(CNC(=O)CSc2c3c(nc4ccc(Cl)cc24)CCCC3)o1` the AC50 was > 52 µM (inactive).
With `COc1cc(C(=O)NCCCN(C)C)ccc1OCC(=O)Nc1cccc(C(F)(F)F)c1` the AC50 was > 52 µM (inactive).
In the case of `CN(CCNC(=O)CSc1c2c(nc3ccc(Cl)cc13)CCCC2)Cc1ccccc1`, the AC50 is reported as > 52 µM (inactive).
For `O=C(CSc1c2c(nc3ccc(Cl)cc13)CCCC2)NCc1ccc2c(c1)OCO2`, the AC50 was > 52 µM (inactive).
In the case of `CCN(CC)CCCNC(=O)c1ccc(OCC(=O)Nc2ccccc2C(F)(F)F)c(OC)c1`, the AC50 is reported as > 52 µM (inactive).
With `COc1ccc(CNC(=O)CSc2c3c(nc4ccc(Cl)cc24)CCCC3)cc1` the AC50 was > 52 µM (inactive).
`O=C(CSc1c2c(nc3ccc(Cl)cc13)CCCC2)NC1CCN(Cc2ccccc2)CC1` gave an AC50 of 26.3 µM.
With `O=C(CSc1c2c(nc3cc(Cl)ccc13)CCCC2)N(Cc1ccco1)C1CCCC1` the AC50 was > 52 µM (inactive).
For `CCN1CCCC1CNC(=O)CSc1c2c(nc3ccc(Cl)cc13)CCCC2` (configuration not stated), the AC50 was 16.1 µM.
With `CC1(C)CC(NC(=O)c2ccc(OCC(=O)Nc3cccc(C(F)(F)F)c3)cc2)CC(C)(C)N1` the AC50 was > 52 µM (inactive).
For `CN(C(=O)COc1ccccc1C(=O)NCCc1ccccc1)c1ccccc1`, the AC50 was > 52 µM (inactive).
For `Cc1ccc(CNC(=O)CSc2c3c(nc4ccc(Cl)cc24)CCCC3)cc1`, the AC50 was > 52 µM (inactive).
For `O=C(CSc1c2c(nc3ccc(Cl)cc13)CCCC2)N1CCN(Cc2ccccc2)CC1`, the AC50 was > 52 µM (inactive).
In the case of `O=C(CSc1c2c(nc3ccccc13)CCCC2)NCc1ccco1`, the AC50 is reported as > 52 µM (inactive).
In the case of `COc1cc(CNCCCN2CCOCC2)ccc1OCC(=O)Nc1cccc(C(F)(F)F)c1`, the AC50 is reported as > 24 µM (inactive).
With `CCCNC(=O)CSc1c2c(nc3ccc(Cl)cc13)CCCC2` the AC50 was > 52 µM (inactive).
For `Cc1cccc(NC(=O)CSc2c3c(nc4ccc(Cl)cc24)CCCC3)n1`, the AC50 was 26.2 µM.
In the case of `COCCNC(=O)CSc1c2c(nc3ccc(Cl)cc13)CCCC2`, the AC50 is reported as > 52 µM (inactive).
For `O=C(CSc1c2c(nc3ccc(Cl)cc13)CCCC2)Nc1ccc(Cl)cc1`, the AC50 was > 52 µM (inactive).
With `O=C(COc1ccccc1C(=O)NCCOc1ccc(Cl)cc1)Nc1cccc(Cl)c1` the AC50 was > 52 µM (inactive).
In the case of `CCCCOc1ccc(NC(=O)COc2ccccc2C(=O)NCCOc2ccccc2)cc1`, the AC50 is reported as > 52 µM (inactive).
In the case of `CC(Sc1c2c(nc3ccc(Cl)cc13)CCCC2)C(=O)NCc1ccco1` (configuration not stated), the AC50 is reported as > 52 µM (inactive).
With `O=C(CSc1c2c(nc3ccc(Cl)cc13)CCCC2)NC1CC1` the AC50 was > 52 µM (inactive).
With `O=C(COc1ccc(C(=O)NC2CCCCC2)cc1)Nc1cccc(C(F)(F)F)c1` the AC50 was > 52 µM (inactive).
In the case of `O=C(CSc1c2c(nc3ccc(Cl)cc13)CCCC2)N1CCOCC1`, the AC50 is reported as > 52 µM (inactive).
